# US20070167474A1, “Use of opioid receptor antagonist compounds for the prevention and/or treatment of diseases associated with the target calcineurin” (priority 2004, published 2007)
# Counter-ions that a name gives are not always drawn.
# Experiments:
# [1] = system: Interleukin-2 (IL-2) production on spleen cells in the MLR; experiment: Measurement of interleukin-2 production in MLR (mixed lymphocyte reaction); format: cell-based, mice; details: 48 h culture, ELISA
# Experimental: Measurement of Interleukin-2 Production in MLR (Mixed Lymphocyte Reaction)
# Measurement of interleukin-2 production in MLR was performed according to the described procedure (Gaveriaux-Ruff et al., J. Pharmacol. Exper. Ther. 298, 1193, 2001).
# Splenocytes from mice were cultured with allogeneic stimulators (mitomycin treated BALB/c spleen cells).
# calcineurin = calcineurin (Homo sapiens, UniProt Q08209); experiment: Calcineurin inhibition assay; format: biochemical; details: compound at a concentration of 20 μM
# Chain of calcineurin (P63098 2-170, other chains not shown): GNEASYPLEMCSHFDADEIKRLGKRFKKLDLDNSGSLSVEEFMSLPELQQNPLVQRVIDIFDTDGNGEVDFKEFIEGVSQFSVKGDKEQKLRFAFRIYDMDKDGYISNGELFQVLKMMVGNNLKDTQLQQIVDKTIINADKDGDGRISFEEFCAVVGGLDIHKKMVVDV
# Experimental: Calcineurin Inhibition Assays
# Calcineurin inhibition assay was performed according to a described procedure (R. Baumgrass et al., J. Biol. Chem. 276, 47914, 2001).
# Calcineurin inhibition was measured in a concentration range of 1-50 μM of the test compound at optimal Ca^2+ and calmoduline concentrations. The calcineurin/compound mixtures were equilibrated in the assay buffer (40 mM Tris-HCl, pH 7.5, 100 mM NaCl, 6 mM MgCl2, 0.5 mM ditiothreitol, 1 mM CaCl2, 0.1 mg/ml bovine serum albumin) at 22° C. for 30 min. Calcineurin activity was referenced to the assay lacking the test compounds. The data were computed with the SigmaPlot program.
Compound,IL-2 ([1]; 10 μM compound) [pg/mL],Calcineurin activity (% of control) (calcineurin),further results
"CCOC12Cc3c([nH]c4ccccc34)C3(C)Oc4c(O)ccc5c4C31CCN(CC1CC1)C2C5 (stereo not drawn) [HS 378, 17-(Cyclopropylmethyl)-6,7-dehydro-4,5α-epoxy-14ethoxy-3-hydroxy-5-methyl-6,7-2′,3′-indolomorphinan Hydrochloride]",31 ± 3,,IL-2 ([1]; 2 μM compound): 49 ± 7 pg/mL; IL-2 ([1]; 20 μM compound): 22 ± 2 pg/mL
"Cl.Oc1ccc2c3c1OC1c4[nH]c5ccccc5c4CC4(OCc5ccccc5-c5ccccc5)C(C2)N(CC2CC2)CCC314 (stereo not drawn) [HS 882, 17-(Cyclopropylmethyl)-6,7-didehydro-4,5α-epoxy-14β-[(2-phenylbenzyl)oxy]indolo[2′,3′:6,7]morphinan-3-ol Hydrochloride]",,49 % of control,
"CC(C)(C)c1ccc(COC23Cc4c([nH]c5ccccc45)C4Oc5c(O)ccc6c5C42CCN(CC2CC2)C3C6)cc1.Cl (stereo not drawn) [HS 884, 14β-[(4-tert.-Butylbenzyl)oxy]-17-(cyclopropylmethyl)-6,7-didehydro-4,5α-epoxyindolo[2′,3′:6,7]morphinan-3-ol Hydrochloride]",,65 % of control,
"Oc1ccc2c3c1OC1c4[nH]c5ccccc5c4CC4(OCCCc5ccccc5)C(C2)N(CC2CC2)CCC314 (stereo not drawn) [HS 894, 17-(Cyclopropylmethyl)-6,7-didehydro-4,5α-epoxy-14β-[(3-phenylpropyl)oxy]indolo[2′,3′:6,7]morphinan-3-ol]",,30 % of control,
"Oc1ccc2c3c1O[C@H]1c4[nH]c5ccccc5c4C[C@@]4(O)[C@@H](C2)N(CC2CC2)CC[C@]314 [Naltrindole, reference compound]",29 ± 6,,IL-2 ([1]; 3 μM compound): 66 ± 18 pg/mL; IL-2 ([1]; 30 μM compound): 19 ± 5 pg/mL
